How the values were obtained:
α-glucosidase = target: T1, α-glucosidase (Saccharomyces cerevisiae, UniProt P53341); assay: α-Glucosidase inhibition assay (pNPG substrate); format: biochemical; conditions: for suppressive property on α-glucosidase relative to acarbose (fold greater than acarbose): ratio of IC50 values versus acarbose; for IC50: α-glucosidase from Saccharomyces cerevisiae, pNPG substrate, 25 °C, pH 7, mean ± standard error, read-out: α-Glucosidase Inhibitory Assay (IC50) (converted)
T1 construct: purchased Sigma-Aldrich
T1 sequence (P53341 whole entry): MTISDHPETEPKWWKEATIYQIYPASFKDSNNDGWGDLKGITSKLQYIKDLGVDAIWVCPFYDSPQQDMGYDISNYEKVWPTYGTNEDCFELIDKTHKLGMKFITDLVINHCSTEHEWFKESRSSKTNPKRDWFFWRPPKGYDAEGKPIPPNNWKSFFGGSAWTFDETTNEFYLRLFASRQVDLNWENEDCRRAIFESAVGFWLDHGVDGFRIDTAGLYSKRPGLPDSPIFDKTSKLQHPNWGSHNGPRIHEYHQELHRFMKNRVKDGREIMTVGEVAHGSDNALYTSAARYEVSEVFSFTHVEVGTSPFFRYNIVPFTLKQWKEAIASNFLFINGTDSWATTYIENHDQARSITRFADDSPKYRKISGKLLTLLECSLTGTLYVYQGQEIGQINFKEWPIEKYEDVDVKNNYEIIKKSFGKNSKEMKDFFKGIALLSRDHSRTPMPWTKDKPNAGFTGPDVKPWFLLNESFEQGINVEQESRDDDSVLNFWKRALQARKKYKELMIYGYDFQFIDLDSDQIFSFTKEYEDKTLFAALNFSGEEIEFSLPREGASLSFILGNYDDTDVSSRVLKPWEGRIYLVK
Protocol: The anti-α-glucosidase activity of MA and MB was evaluated using a method as described previously with some alterations. In brief, an amount of 20 µL methanolic stock solution of MA and MB were pre-mixed with an equal volume of 0.1 M potassium phosphate buffer (pH 7) and 40 µL of α-glucosidase (from Saccharomyces cerevisiae, Sigma-Aldrich, St. Louis, MO, USA) enzyme solution (0.5 U/mL in 0.1 M potassium phosphate buffer, pH 7). After 6 min incubation at 25 °C, a 20 µL aliquot of 5 mM p-nitrophenyl-α-D-glucopyranoside (pNPG) substrate (in 0.1 M potassium phosphate buffer, pH 7) was added to each reaction and the mixture was incubated for another 8 min. Eventually, the reaction was terminated by adding 100 µL of 0.2 M Na2CO3, and absorbance was recorded at 405 nm. […] IC50 value was obtained by the same way as above.

α-amylase = target: T2, α-amylase (Aspergillus oryzae, UniProt P0C1B3); assay: biochemical; format: biochemical; conditions: for IC50: α-amylase from Aspergillus oryzae, starch substrate, 37 °C, pH 6.9, mean ± standard error, read-out: α-Amylase Inhibitory Assay (IC50) (converted)
T2 construct: purchased Sigma-Aldrich
Protocol: The inhibitory effect of MA and MB on α-amylase was assessed by starch-iodine method with a modified model as follows: in each well of a microplate (U-shape, Greiner Bio-one, NC, USA), 20 µL of each either MA or MB were pre-incubated with 20 µL of 1 U/mL α-amylase solution (from Aspergillus oryzae, Sigma-Aldrich, St. Louis, MO, USA) at 37 °C for 10 min. The reaction was initiated by pipetting 30 µL of starch (0.5% in deionized water) (soluble ACS reagent, Sigma-Aldrich, St. Louis, MO, USA). After 6 min incubation at 37 °C, an aliquot of 20 µL of hydrochloric acid (1 M) were added to stop reaction, followed by 120 µL of 0.25 mM aqueous iodine solution. The absorbance at 565 nm was read by a microplate reader (Multiskan^TM Microplate Spectrophotometer, Thermo Fisher Scientific, Osaka, Japan). The inhibitory activity of MA and MB on α-amylase was performed as the inhibition percentage that was calculated by the following formula:% inhibition = (A − C)/(B − C) × 100(2) where A is the absorbance of reaction with presence of MA or MB, B is the absorbance of reaction without enzyme, C is the absorbance of reaction with absence of the momilactones. […] Dilutions of test samples and dissolutions of enzyme used 20 mM sodium phosphate buffer (pH 6.9 comprising of 6 mM sodium chloride). α-Amylase solution and soluble starch solution were prepared and used on the day of experiment.

[1] = ratio of IC50 values, MB versus MA

`C=C[C@]1(C)CC[C@H]2C(=C[C@H]3OC(=O)[C@@]4(C)C(=O)CC[C@@]2(C)[C@@H]34)C1` [MA, momilactone A] was tested, and the “suppressive property on α-glucosidase relative to acarbose (fold greater than acarbose)” value (α-glucosidase) was 2.5 fold, the IC50 (α-glucosidase) was 3150 µM and the IC50 (α-amylase) was 848 µM.

`C=CC1(C)CCC2C(=CC3OC(=O)C4(C)C3C23CCC4(O)OC3)C1` (centres unmarked) [MB, momilactone B] was tested, and the “suppressive property on α-glucosidase relative to acarbose (fold greater than acarbose)” value (α-glucosidase) was 4.2 fold, the “inhibitory activity on α-glucosidase of MB relative to MA (fold stronger)” value (α-glucosidase; [1]) was 1.6 fold and the IC50 (α-glucosidase) was 1850 µM. For the same compound, the “inhibitory activity on α-amylase of MB relative to MA (fold stronger)” value (α-amylase; [1]) was 1.8 fold and the IC50 (α-amylase) was 444 µM.

Reference: paper PMC6385104, “Momilactones A and B Are α-Amylase and α-Glucosidase Inhibitors” (Molecules, 2019)
